Results reported in the supplement of paper PMC11061612.

How the values were obtained:
[1] = test system: EB-3 (Burkitt's Lymphoma); test: combination Emax (second highest fraction inhibited in the dose matrix, 72 h); higher = more inhibition; extreme values may be limits of the assay
Procedure, shortened: (§1)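 Cell lines in DMEM/F12 or RPMI with 10% FBS were plated in 1536-well plates, held 24 hours at 37°C, 5% CO2, then given two-drug dose matrices for 72 hours (DMSO typically 0.2%). Viability was read by CellTiter-Glo 2.0 luminescence and scaled as inhibition from 0 (vehicle wells) to 1 (blank wells). Combination Emax is the second-highest inhibition in the matrix; Bliss excess is observed combination effect minus expected EA + EB − EA·EB, EA and EB being single-agent effects.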

[2] = test system: SK-MM-2 (Plasma Cell Myeloma); test: as above
Procedure, shortened: as §1

[3] = test system: OV-90 (Ovarian Carcinoma); test: as above
Procedure, shortened: as §1

[4] = test system: JHH-1 (Hepatocellular Carcinoma); test: as above
Procedure, shortened: as §1

ES-2 (Ovarian Carcinoma) [5] = test: as above
Procedure, shortened: as §1

[6] = test system: LOUCY (T-Lymphoblastic Leukemia); test: as above
Procedure, shortened: as §1

[7] = test system: NCI-H196 (Small Cell Lung Carcinoma); test: as above
Procedure, shortened: as §1

[8] = test system: AsPC-1 (Pancreatic Carcinoma); test: as above
Procedure, shortened: as §1

CHL-1 (Melanoma) = test: as above
Procedure, shortened: as §1

[9] = test system: PC-14 (Lung Adenocarcinoma); test: as above
Procedure, shortened: as §1

[10] = test system: NCI-H1755 (Lung Adenocarcinoma); test: as above
Procedure, shortened: as §1

[11] = test system: OVTOKO (Ovarian Carcinoma); test: as above
Procedure, shortened: as §1

[12] = test system: HSC-3 (Oral Cavity Carcinoma); test: as above
Procedure, shortened: as §1

[13] = test system: RPMI-8866 (Chronic Myelogenous Leukemia); test: as above
Procedure, shortened: as §1

[14] = test system: SW684 (Other Solid Carcinomas); test: as above
Procedure, shortened: as §1

[15] = test system: RMG-I (Ovarian Carcinoma); test: as above
Procedure, shortened: as §1

[16] = test system: AN3-CA (Endometrial Carcinoma); test: as above
Procedure, shortened: as §1

[17] = test system: OCI-AML5 (Acute Myeloid Leukemia); test: as above
Procedure, shortened: as §1

ES-2 (Ovarian Carcinoma) [18] = test: Bliss excess, mean over the matrix (fraction); higher = more synergy
Procedure, shortened: as §1

[19] = test system: Becker (Low Grade Glioma); test: as above
Procedure, shortened: as §1
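Wherever Bliss excess, mean over the matrix is given: after 72 h of two-drug dosing.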

CN(C)CCCOc1ccc(-c2ccc3ncc4c(c3c2)n(C2CCOCC2)c(=O)n4C)cn1 [AZD0156] + CCN(CCO)CCCOc1ccc2c(Nc3cc(CC(=O)Nc4cccc(F)c4)[nH]n3)ncnc2c1 [AZD2811] (first compound max 1 µM, 7x7, partner max 1 µM)
combination Emax [1]: 0.425
combination Emax [2]: 0.248
combination Emax [3]: 0.143
combination Emax [4]: 0.108
combination Emax (ES-2 (Ovarian Carcinoma) [5]): 0.167
combination Emax [6]: 0.929
combination Emax [7]: 0.0373
combination Emax [8]: 0.0981
combination Emax (CHL-1 (Melanoma)): 0.194
combination Emax [9]: 0.202
combination Emax [10]: 0.475
combination Emax [11]: 0.113
combination Emax [12]: 0.308
combination Emax [13]: 0.61
combination Emax [14]: 0.154
combination Emax [15]: 0.093
combination Emax [16]: 0.27
combination Emax [17]: 0.963
Bliss excess (ES-2 (Ovarian Carcinoma) [18]): -0.0163
Bliss excess [19]: -0.0293

CN(CCO)CC[C@H](CSc1ccccc1)Nc1ccc(S(=O)(=O)NC(=O)c2ccc(N3CCC([C@@H](O)c4ccccc4-c4ccc(Cl)cc4)CC3)cc2)cc1S(=O)(=O)C(F)(F)F [AZD4320] + CN(C)CCCOc1ccc(-c2ccc3ncc4c(c3c2)n(C2CCOCC2)c(=O)n4C)cn1 [AZD0156] (first compound max 1 µM, 7x7, partner max 1 µM)
combination Emax [1]: 0.387
combination Emax [2]: 1
combination Emax [3]: 0.5
combination Emax [4]: 0.444
combination Emax (ES-2 (Ovarian Carcinoma) [5]): 0.15
combination Emax [6]: 1
combination Emax [7]: 0.171
combination Emax [8]: 0.602
combination Emax (CHL-1 (Melanoma)): 0.113
combination Emax [9]: 0.17
combination Emax [10]: 0.229
combination Emax [11]: 0.25
combination Emax [12]: 0.145
combination Emax [13]: 0.552
combination Emax [14]: 0.19
combination Emax [15]: 0.79
combination Emax [16]: 0.27
combination Emax [17]: 1
Bliss excess (ES-2 (Ovarian Carcinoma) [18]): -0.0259
Bliss excess [19]: -0.035

COc1cccc(OCCCN)c1-c1cc(Nc2cnc(C#N)cn2)n[nH]1 [Prexasertib] + Cc1cc2ncnn2cc1Nc1ncc2c(n1)n(C1CCOCC1)c(=O)n2C [AZD7648] (first compound max 1 µM, 7x7, partner max 10 µM)
combination Emax [1]: 0.791
combination Emax [2]: 0.67
combination Emax [3]: 0.548
combination Emax [4]: 0.559
combination Emax (ES-2 (Ovarian Carcinoma) [5]): 0.848
combination Emax [6]: 1
combination Emax [7]: 0.551
combination Emax [8]: 0.425
combination Emax (CHL-1 (Melanoma)): 0.838
combination Emax [9]: 0.861
combination Emax [10]: 0.918
combination Emax [11]: 0.526
combination Emax [12]: 0.731
combination Emax [13]: 1
combination Emax [14]: 0.498
combination Emax [15]: 0.678
combination Emax [16]: 0.843
combination Emax [17]: 0.988
Bliss excess (ES-2 (Ovarian Carcinoma) [18]): -0.0357
Bliss excess [19]: -0.0081

COc1nnc2ccc(N3CCC(c4ccc(OCCN5CCN(C)C(=O)[C@H]5C)cc4)CC3)nn12 [AZD5153] + CC1(C)CCC(CN2CCN(c3ccc(C(=O)NS(=O)(=O)c4ccc(NCC5CCOCC5)c([N+](=O)[O-])c4)c(Oc4cnc5[nH]ccc5c4)c3)CC2)=C(c2ccc(Cl)cc2)C1 [Venetoclax] (first compound max 1 µM, 7x7, partner max 1 µM)
combination Emax [1]: 0.806
combination Emax [2]: 1
combination Emax [3]: 0.387
combination Emax [4]: 0.391
combination Emax (ES-2 (Ovarian Carcinoma) [5]): 0.546
combination Emax [6]: 1
combination Emax [7]: 0.32
combination Emax [8]: 0.176
combination Emax (CHL-1 (Melanoma)): 0.531
combination Emax [9]: 0.419
combination Emax [10]: 0.454
combination Emax [11]: 0.507
combination Emax [12]: 0.69
combination Emax [13]: 0.814
combination Emax [14]: 0.531
combination Emax [15]: 0.599
combination Emax [16]: 0.2
combination Emax [17]: 1
Bliss excess (ES-2 (Ovarian Carcinoma) [18]): -0.0677
Bliss excess [19]: -0.0487

Cc1c2c(nn1C)CSCc1cc(n(C)n1)CSc1cc(c3ccccc3c1)OCCCc1c(C(=O)O)n(C)c3c-2c(Cl)ccc13 [AZD5991] + C=CCn1c(=O)c2cnc(Nc3ccc(N4CCN(C)CC4)cc3)nc2n1-c1cccc(C(C)(C)O)n1 [AZD1775] (first compound max 1 µM, partner max 1 µM)
combination Emax [1]: 0.732
combination Emax [2]: 0.707
combination Emax [3]: 0.521
combination Emax [4]: 0.721
combination Emax (ES-2 (Ovarian Carcinoma) [5]): 0.842
combination Emax [6]: 1
combination Emax [7]: 0.508
combination Emax [8]: 0.369
combination Emax (CHL-1 (Melanoma)): 0.745
combination Emax [9]: 0.921
combination Emax [10]: 0.79
combination Emax [11]: 0.618
combination Emax [12]: 0.851
combination Emax [13]: 0.978
combination Emax [14]: 0.273
combination Emax [15]: 0.375
combination Emax [16]: 0.637
combination Emax [17]: 1
Bliss excess (ES-2 (Ovarian Carcinoma) [18]): -0.0399
Bliss excess [19]: -0.0319

Cn1cnc2c(F)c(Nc3ccc(Br)cc3Cl)c(C(=O)NOCCO)cc21 [Selumetinib] + C[C@@H]1COCCN1C2=NC(=NC(=C2)C3(CC3)[S@](=N)(=O)C)C4=C5C=CNC5=NC=C4 [AZD6738] (first compound max 10 µM, 7x7, partner max 10 µM)
combination Emax [1]: 0.589
combination Emax [2]: 0.23
combination Emax [3]: 0.688
combination Emax [4]: 0.436
combination Emax (ES-2 (Ovarian Carcinoma) [5]): 0.714
combination Emax [6]: 0.966
combination Emax [7]: 0.227
combination Emax [8]: 0.435
combination Emax (CHL-1 (Melanoma)): 0.772
combination Emax [9]: 0.829
combination Emax [10]: 0.738
combination Emax [11]: 0.404
combination Emax [12]: 0.545
combination Emax [13]: 0.943
combination Emax [14]: 0.265
combination Emax [15]: 0.354
combination Emax [16]: 0.464
combination Emax [17]: 1
Bliss excess (ES-2 (Ovarian Carcinoma) [18]): 0.0006
Bliss excess [19]: 0.0016
